Measurements taken from the supplement of paper PMC10307832.

Legend:
Assay in all cases: relative viability (nuclei count vs DMSO), 5 days (fraction); higher = more cells survive
NCI-H647 = tested on: NCI-H647
Summary of the method: (§1)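 Five library-drug doses in √10 steps were combined with a fixed anchor-drug dose, or a single drug was given alone, by pin tool to lung cancer cell lines in 1536-well plates the day after seeding. Nuclei were stained and counted after 5 days. Relative viability is the nuclei count in treated wells over that in vehicle wells, taken as the median of duplicate plates.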

LOU-NH91 = tested on: LOU-NH91
Summary of the method: as §1

EPLC-272H = tested on: EPLC-272H
Summary of the method: as §1

PC-14 = tested on: PC-14
Summary of the method: as §1

NCI-H3122 = tested on: NCI-H3122
Summary of the method: as §1

NCI-H1993 = tested on: NCI-H1993
Summary of the method: as §1

NCI-H520 = tested on: NCI-H520
Summary of the method: as §1

NCI-H2347 = tested on: NCI-H2347
Summary of the method: as §1

HCC-44 = tested on: HCC-44
Summary of the method: as §1

NCI-H1563 = tested on: NCI-H1563
Summary of the method: as §1

NCI-H1650 = tested on: NCI-H1650
Summary of the method: as §1

H3255 = tested on: H3255
Summary of the method: as §1

201T = tested on: 201T
Summary of the method: as §1

NCI-H2023 = tested on: NCI-H2023
Summary of the method: as §1

COR-L23 = tested on: COR-L23
Summary of the method: as §1

NCI-H441 = tested on: NCI-H441
Summary of the method: as §1

NCI-H2085 = tested on: NCI-H2085
Summary of the method: as §1

NCI-H2405 = tested on: NCI-H2405
Summary of the method: as §1

RERF-LC-KJ = tested on: RERF-LC-KJ
Summary of the method: as §1

NCI-H1734 = tested on: NCI-H1734
Summary of the method: as §1

`C=C1C(=O)O[C@@H](CCCCCCCC)[C@@H]1C(=O)O` [C-75] + CC(C)C[C@H](NC(=O)[C@H](Cc1ccccc1)NC(=O)c1cnccn1)B(O)O [Bortezomib] (partner 0.002 µM) was tested, and the relative viability (NCI-H647; first compound 0.08 µM) was 0.836, the relative viability (NCI-H647; first compound 0.253 µM) was 1.1 and the relative viability (NCI-H647; first compound 2.53 µM) was 0.869. The relative viability (NCI-H647; first compound 8 µM) was 0.809, the relative viability (LOU-NH91; first compound 0.08 µM) was 0.47 and the relative viability (LOU-NH91; first compound 0.253 µM) was 0.495. The relative viability (LOU-NH91; first compound 0.8 µM) was 0.454, the relative viability (LOU-NH91; first compound 2.53 µM) was 0.346 and the relative viability (LOU-NH91; first compound 8 µM) was 0.394. The relative viability (EPLC-272H; first compound 0.08 µM) was 1.03, the relative viability (EPLC-272H; first compound 0.253 µM) was 0.845 and the relative viability (EPLC-272H; first compound 0.8 µM) was 0.792. It also gave a relative viability (EPLC-272H; first compound 2.53 µM) of 0.833, a relative viability (EPLC-272H; first compound 8 µM) of 0.913 and a relative viability (PC-14; first compound 0.08 µM) of 0.853. The relative viability (PC-14; first compound 0.253 µM) was 0.969, the relative viability (PC-14; first compound 0.8 µM) was 0.94 and the relative viability (PC-14; first compound 2.53 µM) was 0.726. For the same compound, the relative viability (PC-14; first compound 8 µM) was 0.965, the relative viability (NCI-H3122; first compound 0.08 µM) was 1.01 and the relative viability (NCI-H3122; first compound 0.253 µM) was 0.987. For the same compound, the relative viability (NCI-H3122; first compound 0.8 µM) was 0.989, the relative viability (NCI-H3122; first compound 8 µM) was 1.04 and the relative viability (NCI-H1993; first compound 0.08 µM) was 0.951. For the same compound, the relative viability (NCI-H1993; first compound 0.253 µM) was 1.24, the relative viability (NCI-H1993; first compound 0.8 µM) was 1.08 and the relative viability (NCI-H1993; first compound 2.53 µM) was 0.54. The relative viability (NCI-H1993; first compound 8 µM) was 1.09, the relative viability (NCI-H520; first compound 0.08 µM) was 0.442 and the relative viability (NCI-H520; first compound 0.253 µM) was 0.425. It also gave a relative viability (NCI-H520; first compound 0.8 µM) of 0.578, a relative viability (NCI-H520; first compound 2.53 µM) of 0.337 and a relative viability (NCI-H520; first compound 8 µM) of 0.58. For the same compound, the relative viability (NCI-H2347; first compound 0.08 µM) was 1.06, the relative viability (NCI-H2347; first compound 0.253 µM) was 1.09 and the relative viability (NCI-H2347; first compound 2.53 µM) was 0.851. The relative viability (NCI-H2347; first compound 8 µM) was 0.741, the relative viability (HCC-44; first compound 0.08 µM) was 0.885 and the relative viability (HCC-44; first compound 0.253 µM) was 0.863. For the same compound, the relative viability (HCC-44; first compound 0.8 µM) was 0.857, the relative viability (HCC-44; first compound 2.53 µM) was 0.714 and the relative viability (HCC-44; first compound 8 µM) was 0.89. It also gave a relative viability (NCI-H1563; first compound 0.08 µM) of 0.855, a relative viability (NCI-H1563; first compound 0.253 µM) of 1.1 and a relative viability (NCI-H1563; first compound 0.8 µM) of 0.963. It also gave a relative viability (NCI-H1563; first compound 2.53 µM) of 0.763, a relative viability (NCI-H1563; first compound 8 µM) of 0.906 and a relative viability (NCI-H1650; first compound 0.08 µM) of 0.223. For the same compound, the relative viability (NCI-H1650; first compound 0.253 µM) was 0.212, the relative viability (NCI-H1650; first compound 0.8 µM) was 0.198 and the relative viability (NCI-H1650; first compound 2.53 µM) was 0.158. For the same compound, the relative viability (NCI-H1650; first compound 8 µM) was 0.187, the relative viability (H3255; first compound 0.08 µM) was 0.841 and the relative viability (H3255; first compound 0.253 µM) was 0.811. For the same compound, the relative viability (H3255; first compound 0.8 µM) was 0.715, the relative viability (H3255; first compound 2.53 µM) was 0.799 and the relative viability (H3255; first compound 8 µM) was 0.8. For the same compound, the relative viability (201T; first compound 0.08 µM) was 1.07, the relative viability (201T; first compound 0.253 µM) was 1.24 and the relative viability (201T; first compound 0.8 µM) was 1.08. The relative viability (201T; first compound 2.53 µM) was 1.15, the relative viability (201T; first compound 8 µM) was 1.08 and the relative viability (NCI-H2023; first compound 0.08 µM) was 1.04. It also gave a relative viability (NCI-H2023; first compound 0.253 µM) of 1.22, a relative viability (NCI-H2023; first compound 0.8 µM) of 0.902 and a relative viability (NCI-H2023; first compound 2.53 µM) of 0.843. The relative viability (NCI-H2023; first compound 8 µM) was 0.835, the relative viability (COR-L23; first compound 0.08 µM) was 0.953 and the relative viability (COR-L23; first compound 0.253 µM) was 1.05. It also gave a relative viability (COR-L23; first compound 0.8 µM) of 0.946, a relative viability (COR-L23; first compound 2.53 µM) of 0.698 and a relative viability (COR-L23; first compound 8 µM) of 0.818. For the same compound, the relative viability (NCI-H441; first compound 0.08 µM) was 0.497, the relative viability (NCI-H441; first compound 0.253 µM) was 0.259 and the relative viability (NCI-H441; first compound 0.8 µM) was 0.447. The relative viability (NCI-H441; first compound 2.53 µM) was 0.315, the relative viability (NCI-H441; first compound 8 µM) was 0.26 and the relative viability (NCI-H2085; first compound 0.08 µM) was 1.13. The relative viability (NCI-H2085; first compound 0.253 µM) was 0.882, the relative viability (NCI-H2085; first compound 0.8 µM) was 0.999 and the relative viability (NCI-H2085; first compound 2.53 µM) was 0.76. It also gave a relative viability (NCI-H2085; first compound 8 µM) of 0.897, a relative viability (NCI-H2405; first compound 0.08 µM) of 0.995 and a relative viability (NCI-H2405; first compound 0.253 µM) of 0.773. It also gave a relative viability (NCI-H2405; first compound 0.8 µM) of 0.974, a relative viability (NCI-H2405; first compound 2.53 µM) of 0.673 and a relative viability (NCI-H2405; first compound 8 µM) of 0.971. The relative viability (RERF-LC-KJ; first compound 0.08 µM) was 1.17, the relative viability (RERF-LC-KJ; first compound 0.253 µM) was 1.09 and the relative viability (RERF-LC-KJ; first compound 0.8 µM) was 1.21. The relative viability (RERF-LC-KJ; first compound 2.53 µM) was 1.09, the relative viability (RERF-LC-KJ; first compound 8 µM) was 1.31 and the relative viability (NCI-H1734; first compound 0.08 µM) was 1.13. The relative viability (NCI-H1734; first compound 0.253 µM) was 0.934, the relative viability (NCI-H1734; first compound 0.8 µM) was 0.886 and the relative viability (NCI-H1734; first compound 2.53 µM) was 0.812. It also gave a relative viability (NCI-H1734; first compound 8 µM) of 0.785.
